# Target: T1, Vitamin D3 receptor (Homo sapiens) (UniProt P11473)
# T1 sequence (whole entry): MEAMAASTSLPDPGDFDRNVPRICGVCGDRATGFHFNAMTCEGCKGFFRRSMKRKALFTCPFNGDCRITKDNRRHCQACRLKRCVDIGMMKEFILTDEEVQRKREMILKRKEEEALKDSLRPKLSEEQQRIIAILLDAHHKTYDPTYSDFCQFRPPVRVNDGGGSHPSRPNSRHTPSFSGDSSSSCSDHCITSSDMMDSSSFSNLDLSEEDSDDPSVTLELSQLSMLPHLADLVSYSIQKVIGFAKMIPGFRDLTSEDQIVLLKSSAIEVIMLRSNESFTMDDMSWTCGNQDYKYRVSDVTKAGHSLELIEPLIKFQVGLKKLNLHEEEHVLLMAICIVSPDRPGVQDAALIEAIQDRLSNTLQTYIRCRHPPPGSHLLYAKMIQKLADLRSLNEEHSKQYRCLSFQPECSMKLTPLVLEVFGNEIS
# Assay: Antagonist activity against 1-alpha,25-dihydroxy vitamin D3-induced HL60 cell differentiation by NBT reduction method relative to TEI-9647
# Assay type: functional, cell-based
# Set-up: scale not given: the % may be the effect or the level left
# Conditions: HL-60
row,SMILES,Activity [%]
1,C=C1/C(=C\C=C2/CCC[C@]3(C)[C@@H]([C@H](C)C[C@@H]4OC(=O)C(=C)[C@@H]4CCC)CC[C@@H]23)C[C@@H](O)[C@H](CCCO)[C@@H]1O,4200
2,C=C1C(=O)O[C@H](C[C@@H](C)[C@H]2CC[C@H]3/C(=C/C=C4/C[C@@H](O)[C@H](CCCO)[C@H](O)C4=C)CCC[C@]23C)[C@@H]1C,30
3,C=C1/C(=C\C=C2/CCC[C@]3(C)[C@@H]([C@H](C)C[C@H]4OC(=O)C(=C)C4(C)C)CC[C@@H]23)C[C@@H](O)C[C@@H]1O,16
4,C=C1/C(=C\C=C2/CCC[C@]3(C)[C@@H]([C@H](C)C[C@@H]4OC(=O)C(=C)[C@@H]4CCC)CC[C@@H]23)C[C@@H](O)[C@H](C)[C@@H]1O,1540
5,C=C1/C(=C\C=C2/CCC[C@]3(C)[C@@H]([C@H](C)C[C@@H]4OC(=O)C(=C)[C@H]4CC(C)C)CC[C@@H]23)C[C@@H](O)[C@H](C)[C@@H]1O,229
6,C=C1C[C@@H](C[C@@H](C)[C@H]2CC[C@H]3/C(=C/C=C4/C[C@@H](O)C[C@H](O)C4=C)CCC[C@]23C)OC1=O,7
7,C=C1/C(=C\C=C2/CCC[C@]3(C)[C@@H]([C@H](C)C[C@@H]4OC(=O)C(=C)C4(C)C)CC[C@@H]23)C[C@@H](O)C[C@@H]1O,1170
8,C=C1/C(=C\C=C2/CCC[C@]3(C)[C@@H]([C@H](C)C[C@H]4OC(=O)C(=C)[C@@H]4CCCC)CC[C@@H]23)C[C@@H](O)[C@H](C)[C@@H]1O,1
9,C=C1/C(=C\C=C2/CCC[C@]3(C)[C@@H]([C@H](C)C[C@H]4OC(=O)C(=C)[C@H]4CCCC)CC[C@@H]23)C[C@@H](O)[C@H](CCCO)[C@@H]1O,46
10,C=C1/C(=C\C=C2/CCC[C@]3(C)[C@@H]([C@H](C)C[C@H]4OC(=O)C(=C)[C@H]4CCC)CC[C@@H]23)C[C@@H](O)[C@H](OCCCO)[C@@H]1O,97
11,C=C1C(=O)O[C@H](C[C@@H](C)[C@H]2CC[C@H]3/C(=C/C=C4/C[C@@H](O)C[C@H](O)C4=C)CCC[C@]23C)[C@@H]1CC,13
12,C=C1/C(=C\C=C2/CCC[C@]3(C)[C@@H]([C@H](C)C[C@@H]4OC(=O)C(=C)[C@H]4CCCC)CC[C@@H]23)C[C@@H](O)[C@H](OCCCO)[C@@H]1O,205
13,C=C1/C(=C\C=C2/CCC[C@]3(C)[C@@H]([C@H](C)C[C@@H]4OC(=O)C(=C)[C@H]4CC)CC[C@@H]23)C[C@@H](O)[C@H](C)[C@@H]1O,248
14,C=C1/C(=C\C=C2/CCC[C@]3(C)[C@@H]([C@H](C)C[C@H]4OC(=O)C(=C)[C@H]4CC)CC[C@@H]23)C[C@@H](O)[C@H](OCCCO)[C@@H]1O,27
15,C=C1C[C@@H](C[C@@H](C)[C@H]2CC[C@H]3/C(=C/C=C4/C[C@@H](O)[C@H](CCCO)[C@H](O)C4=C)CCC[C@]23C)OC1=O,100
16,C=C1C(=O)O[C@@H](C[C@@H](C)[C@H]2CC[C@H]3/C(=C/C=C4/C[C@@H](O)C[C@H](O)C4=C)CCC[C@]23C)[C@@H]1CC,70
17,C=C1/C(=C\C=C2/CCC[C@]3(C)[C@@H]([C@H](C)C[C@@H]4OC(=O)C(=C)[C@@H]4C)CC[C@@H]23)C[C@@H](O)[C@H](OCCCO)[C@@H]1O,1970
18,C=C1/C(=C\C=C2/CCC[C@]3(C)[C@@H]([C@H](C)C[C@@H]4OC(=O)C(=C)[C@@H]4CC(C)C)CC[C@@H]23)C[C@@H](O)[C@H](OCCCO)[C@@H]1O,3440
19,C=C1C[C@H](C[C@@H](C)[C@H]2CC[C@H]3/C(=C/C=C4/C[C@@H](O)[C@H](C)[C@H](O)C4=C)CCC[C@]23C)OC1=O,1020
20,C=C1/C(=C\C=C2/CCC[C@]3(C)[C@@H]([C@H](C)C[C@@H]4OC(=O)C(=C)[C@H]4CC(C)C)CC[C@@H]23)C[C@@H](O)[C@H](OCCCO)[C@@H]1O,291
21,C=C1C(=O)O[C@H](C[C@@H](C)[C@H]2CC[C@H]3/C(=C/C=C4/C[C@@H](O)C[C@H](O)C4=C)CCC[C@]23C)[C@@H]1CC(C)C,9
22,C=C1/C(=C\C=C2/CCC[C@]3(C)[C@@H]([C@H](C)C[C@H]4OC(=O)C(=C)[C@@H]4CC(C)C)CC[C@@H]23)C[C@@H](O)C[C@@H]1O,5
23,C=C1/C(=C\C=C2/CCC[C@]3(C)[C@@H]([C@H](C)C[C@@H]4OC(=O)C(=C)[C@@H]4CCC)CC[C@@H]23)C[C@@H](O)C[C@@H]1O,86
24,C=C1/C(=C\C=C2/CCC[C@]3(C)[C@@H]([C@H](C)C[C@H]4OC(=O)C(=C)[C@@H]4CCCC)CC[C@@H]23)C[C@@H](O)C[C@@H]1O,4
25,C=C1/C(=C\C=C2/CCC[C@]3(C)[C@@H]([C@H](C)C[C@@H]4OC(=O)C(=C)[C@@H]4CC(C)C)CC[C@@H]23)C[C@@H](O)[C@H](C)[C@@H]1O,1220
26,C=C1/C(=C\C=C2/CCC[C@]3(C)[C@@H]([C@H](C)C[C@@H]4OC(=O)C(=C)[C@@H]4CCC)CC[C@@H]23)C[C@@H](O)[C@H](OCCCO)[C@@H]1O,85100

# Reference: ChEMBL document CHEMBL1137357, “Further synthetic and biological studies on vitamin D hormone antagonists based on C24-alkylation and C2alpha-functionalization of 25-dehydro-1alpha-hydroxyvitamin D(3)-26,23-lactones” (J Med Chem, 2006)
